ChEMBL document CHEMBL5724709, “EUbOPEN Chemogenomics Library - IncuCyte” (2024)

What was measured:
Format in all cases: toxicity, cell-based
[1] = test system: Fibroblast; test: Incucyte cell viability with human fibroblast; conditions: 24 h, 10 µM, compound concentration 10 uM
[2] = test system: HEK-293T; test: Incucyte cell viability with HEK293T; conditions: human, 24 h, 10 µM, compound concentration 10 uM
[3] = test system: U2OS; test: Incucyte cell viability with U2OS; conditions: human, 24 h, 10 µM, compound concentration 10 uM
Note: unitless GR value; below 1 slowed growth and below 0 cell loss.

Compound | Growth Rate ([1]; replicate number 1) | Growth Rate ([1]; replicate number 2) | Growth Rate ([2]; replicate number 1) | Growth Rate ([2]; replicate number 2) | Growth Rate ([3]; replicate number 1) | Growth Rate ([3]; replicate number 2)
Nc1ccccc1NC(=O)c1ccc(CNc2nccc(-c3cccnc3)n2)cc1 [MOCETINOSTAT] | 1 | -0.28 | 0.33 | 0.39 | -0.13 | 0.28
CCCCN(Cc1ccc(C(=O)NO)cc1)C(=O)Nc1ccccc1 [NEXTURASTAT A] | 1 | -0.22 | 1 | – | -0.18 | 0.6
CC(C)(F)C[C@H](N[C@@H](c1ccc(-c2ccc(S(C)(=O)=O)cc2)cc1)C(F)(F)F)C(=O)NC1(C#N)CC1 [ODANACATIB] | 0.39 | 1 | 0.9 | 0.87 | 0.65 | 1
CC(C)c1cc(C(=O)N2Cc3ccc(CN4CCN(C)CC4)cc3C2)c(O)cc1O [ONALESPIB] | 0.29 | 0.25 | -0.26 | -0.15 | -0.07 | 0.05
Nc1nc2cc(CC[C@H]3C[C@@H](n4ccc5c(N)ncnc54)[C@H](O)[C@@H]3O)ccc2cc1Br [ONAMETOSTAT] | 0.43 | 0.06 | -0.14 | -0.01 | 0.19 | 1
COc1ccc2c(c1)OC(C)(C)C(c1ccccc1)C2c1ccc(OCCN2CCCC2)cc1 (configuration not stated) [ORMELOXIFENE] | 1 | 0.9 | 0.93 | 0.92 | 1 | 0.75
CC(=O)N1CCC(Nc2cc(C(=O)NC[C@H](O)CN3CCc4ccccc4C3)ncn2)CC1 [PEMRAMETOSTAT] | 1 | – | 0.9 | 1 | 0.26 | 1
CC(C)N(C[C@H]1O[C@@H](n2cnc3c(N)ncnc32)[C@H](O)[C@@H]1O)[C@H]1C[C@@H](CCc2nc3cc(C(C)(C)C)ccc3[nH]2)C1 [PINOMETOSTAT] | 1 | – | 0.61 | 0.77 | 1 | 0.85
COc1cc(Nc2ncc(F)c(Nc3ccc4c(n3)NC(=O)C(C)(C)O4)n2)cc(OC)c1OC [R-406] | -0.02 | -0.68 | 0.1 | 0.27 | -0.31 | -0.21
O=C(CCCCCCNC(=O)c1cnc(N(c2ccccc2)c2ccccc2)nc1)NO [RICOLINOSTAT] | 0.23 | -0.16 | 0.73 | 1 | 0 | 0.16
C/C=C1\NC(=O)[C@H]2CSSCC/C=C/[C@H](CC(=O)N[C@H](C(C)C)C(=O)N2)OC(=O)[C@H](C(C)C)NC1=O [ROMIDEPSIN] | 0.96 | -0.41 | 0.73 | – | 1 | 0.29
Nc1ncnc2c1ncn2[C@@H]1O[C@H](C[C@@H](N)CC[C@H](N)C(=O)O)[C@@H](O)[C@H]1O [SINEFUNGIN] | 0.66 | -0.28 | 0.85 | 0.88 | 0.54 | 1
Cc1ccc(C(=O)Nc2ccc(S(=O)(=O)[O-])c3cc(S(=O)(=O)[O-])cc(S(=O)(=O)[O-])c23)cc1NC(=O)c1cccc(NC(=O)Nc2cccc(C(=O)Nc3cc(C(=O)Nc4ccc(S(=O)(=O)[O-])c5cc(S(=O)(=O)[O-])cc(S(=O)(=O)[O-])c45)ccc3C)c2)c1.[Na+].[Na+].[Na+].[Na+].[Na+].[Na+] [SURAMIN HEXASODIUM] | 0.42 | 0.59 | 0.7 | 0.83 | 1 | –
CCN(c1cc(-c2ccc(CN3CCOCC3)cc2)cc(C(=O)NCc2c(C)cc(C)[nH]c2=O)c1C)C1CCOCC1 [TAZEMETOSTAT] | 0.54 | – | 0.68 | 0.82 | 0.43 | 0.87
O=C(CCCCCCC(=O)Nc1ccc([C@H]2O[C@@H](CSc3nc(-c4ccccc4)c(-c4ccccc4)o3)C[C@@H](c3ccc(CO)cc3)O2)cc1)NO [TUBACIN] | 1 | -0.34 | 0.85 | 1 | 1 | 0.73
Nc1cc(F)ccc1NC(=O)c1ccc(CNC(=O)/C=C/c2cccnc2)cc1 [TUCIDINOSTAT] | 1 | – | 1 | – | -0.5 | 0.82
CC(=O)O[C@]1(C(C)=O)CC[C@H]2[C@@H]3CCC4=CC(=O)CCC4=C3[C@@H](c3ccc(N(C)C)cc3)C[C@@]21C [ULIPRISTAL ACETATE] | 0.18 | 0.99 | 0.78 | 0.96 | 0.94 | 0.78
CC(C)Nc1cc(-c2c[nH]c(C(=O)N[C@H](CO)c3cccc(Cl)c3)c2)c(Cl)cn1 [ULIXERTINIB] | 0.93 | 0.08 | 1 | – | 0.68 | 0.74
Cc1cc(C)c(CNC(=O)c2cc(Cl)c3c(c2C)O[C@@](C)([C@H]2CC[C@H](N(C)C)CC2)O3)c(=O)[nH]1 [VALEMETOSTAT] | 1 | 0.46 | 0.77 | 0.96 | 0.4 | 0.98
COc1cc2c(Nc3ccc(Br)cc3F)ncnc2cc1OCC1CCN(C)CC1 [VANDETANIB] | 0.22 | -0.22 | -0.15 | 0.26 | -0.56 | 0.01
Cc1nc(-c2cnc(NC(C)C)n(C)c2=O)ccc1Oc1ccnc(-c2cnn(C)c2)c1 [VIMSELTINIB] | 0.29 | -0.35 | 0.39 | 0.02 | 0.42 | 0.46
